The values that follow come from patent US7772271B2 (priority 2004, dated 2010).

The structures appear in SMILES notation.

Take `N#Cc1c(-c2ccc(NS(=O)(=O)C3CC3)cc2)n(C2CCC2)c2cc(OC3CCS(=O)(=O)CC3)ccc12` [Compound 3185]: the melting point lay within 279 to 285 °C.
Compound `C[C@@H](OC(=O)Nc1ccc(-c2c(C#N)c3ccc(OC4CCOCC4)cc3n2C2CC2)cc1)c1ccc(F)cc1` [Compound 2869] gave a melting point of 108 to 111 °C.
`CC(C)OC(=O)Nc1ccc(-c2c(C#N)c3ccc(OC4CCOC4)cc3n2C2CC2)cc1` (centres unmarked) [Compound 1449] showed a melting point of 180 to 181 °C.
Next, `C[C@@H](OC(=O)Nc1ccc(-c2c(C#N)c3cc(Oc4ncccc4C#N)ccc3n2C2CCC2)cc1)C1CC1` [Compound 3256]: 217 to 218 °C.
With `CCN(C)C(=O)c1ccc2c(C#N)c(-c3ccc(NS(=O)(=O)C4CC4)cc3)n(C3CCC3)c2c1` [Compound 2296], the melting point fell in the range of 202 to 205 °C.
Next, `CCCS(=O)(=O)Nc1ccc(-c2c(C#N)c3ccc(Oc4cccnc4Cl)cc3n2C2CC2)cc1` [Compound 2936]: 209 to 210 °C; `C[C@@H](OC(=O)Nc1ccc(-c2c(C#N)c3ccc(-c4ncccc4C#N)cc3n2C2CCC2)cc1)C1CC1` [Compound 3243]: 183 to 185 °C.
For `CC(OC(=O)Nc1ccc(-c2c(C#N)c3ccc(OC4CCOCC4)cc3n2C2CCC2)cc1)C1CCC1` (centres unmarked) [Compound 2871] the value was 198 to 199 °C.
For `CC(C)OC(=O)Nc1ccc(-c2c(C#N)c3ccc(OC4CCN(Cc5ccccc5)C4)cc3n2C2CCC2)cc1` (centres unmarked) [Compound 1442] the value was 144 to 145 °C.
`CC(NC(=O)Nc1ccc(-c2c(C#N)c3ccc(Oc4ncccn4)cc3n2C2CCC2)cc1)c1ccc(F)cc1` (centres unmarked) [Compound 2710] displayed a melting point of 240 to 242 °C.
With `CC(C)NS(=O)(=O)Nc1ccc(-c2c(C#N)c3ccc(Oc4nccnc4Cl)cc3n2C2CC2)cc1` [Compound 2947], the melting point is 130 °C (dec.).
As for `CC(C)OC(=O)Nc1ccc(-c2c(C#N)c3ccc(Oc4ncccn4)cc3n2C2CCC2)cc1OC(F)(F)F` [Compound 3035], the melting point fell in the range of 94 to 96 °C.
In the case of `CCCS(=O)(=O)Nc1ccc(-c2c(C#N)c3ccc(Oc4ncccc4Br)cc3n2CC2CC2)c(C)c1` [Compound 3029], the melting point is 110 to 113 °C.
Next, `CC(C)S(=O)(=O)Nc1ccc(-c2c(C#N)c3ccc(C(=O)N4CCOCC4)cc3n2C2CCC2)cc1` [Compound 2899]: 169 to 171 °C.
`N#Cc1nccnc1Oc1ccc2c(C#N)c(-c3ccc(NS(=O)(=O)C4CC4)cc3)n(CC3CC3)c2c1` [Compound 3239]: the melting point is 193 to 196 °C.
The compound `CN1CCN(C(=O)c2ccc3c(C#N)c(-c4ccc(NS(=O)(=O)C5CC5)cc4)n(C4CCC4)c3c2)CC1` [Compound 3114] came in with a melting point of 124 to 127 °C.
Turning to `CCCS(=O)(=O)Nc1ccc(-c2c(C#N)c3ccc(Oc4nccc(C)n4)cc3n2CC2CC2)cc1` [Compound 2969], the melting point lay in the range of 181 to 183 °C.
`CC(C)OC(=O)Nc1ccc(-c2c(C#N)c3ccc(OCS(C)(=O)=O)cc3n2C2CC2)cc1` [Compound 3052] had a melting point of 166 to 187 °C.
Next, `CC(C)Nc1ccc(-c2c(C#N)c3ccc(Oc4ncccn4)cc3n2C2CCC2)cn1` [Compound 3312]: 206 to 208 °C; `CSCCOc1ccc2c(C#N)c(-c3ccc(NC(=O)OC(C)C)cc3)n(C3CCC3)c2c1` [Compound 2700]: 132 to 133 °C.
For `C[C@@H](OC(=O)Nc1ccc(-c2c(C#N)c3ccc(-c4ccc(Cl)cn4)cc3n2C2CCC2)cc1)C1CC1` [Compound 3001] the value was 111 to 122 °C; for `Cc1cc(NC(=O)O[C@H](C)C2CC2)ccc1-c1c(C#N)c2ccc(Oc3nccnc3C#N)cc2n1C1CCC1` [Compound 3334], 108 to 116 °C.
Next, `C[C@@H](OC(=O)Nc1ccc(-c2c(C#N)c3ccc(OC4CCOCC4)cc3n2C2CC2)cc1)C(F)(F)F` [Compound 2910]: 162 to 164 °C.
For `CCOc1ccc2c(C#N)c(-c3ccc4c(c3)CCC(=O)N4)n(C3CCC3)c2c1` [Compound 3221], the melting point fell in the range of 249 to 250 °C.
For `CC(C)n1c(-c2ccc(NC(=O)O[C@H](C)C3CC3)cc2)c(C#N)c2ccc(O[C@H]3CCOC3)cc21` [Compound 2742] the value was 189 to 192 °C; for `COCCOc1ccc2c(C#N)c(-c3ccc(NC(=O)OC(C)c4ccc(F)cc4)cc3)n(C3CC3)c2c1` (centres unmarked) [Compound 1439], 74 to 76 °C; for `COCCOc1ccc2c(C#N)c(-c3ccc(C(=O)NC4CCCC4)cc3)n(C3CCC3)c2c1` [Compound 2758], 194 to 196 °C.
For `CC(C)[C@H](C)OC(=O)Nc1ccc(-c2c(C#N)c3ccc(OC4COCOC4)cc3n2C2CCC2)cc1` [Compound 2859] the value was 200 to 201 °C; for `CCOc1ccc2c(C#N)c(-c3ccc(NC(=O)OCc4cnccn4)cc3)n(C3CCC3)c2c1` [Compound 1426], 159 to 164 °C.
For `N#Cc1c(-c2ccc(Nc3ncccn3)cc2)n(C2CCC2)c2cc(OC3CCOCC3)ccc12` [Compound 3166] the value was 209 to 213 °C; for `Cc1cc(-c2c(C#N)c3ccc(OCC(F)F)cc3n2C2CCC2)ccc1NC(=O)OC(C)C(F)(F)F` (centres unmarked) [Compound 3049], 154 to 155 °C.
In turn, `Cc1nccc(Oc2ccc3c(C#N)c(-c4ccc(NC(=O)NC(C)C)cc4)n(C4CCC4)c3c2)n1` [Compound 2761] came in with a melting point of 240 to 245 °C.
For `COCCOc1ccc2c(C#N)c(-c3ccc(NC(=O)OC(C)c4ccc(F)cc4)cc3)n(C(C)C)c2c1` (centres unmarked) [Compound 2687] the value was 89 to 112 °C; for `N#Cc1c(-c2ccc(NC(=O)OC3CCC3)cc2)n(C2CCC2)c2cc(OC3CCOC3)ccc12` (centres unmarked) [Compound 1455], 183 to 184 °C.
On to `N#Cc1c(-c2cnc(NC3CCCC3)nc2)n(C2CCC2)c2cc(Oc3ncccn3)ccc12` [Compound 3330], for which the melting point was 230 to 231 °C.
With `N#Cc1c(-c2ccc(NC3=NC(O)(C(F)(F)F)CS3)cc2)n(C2CCC2)c2cc(OC3CCOCC3)ccc12` (centres unmarked) [Compound 3150], the melting point was 136 to 138 °C.
`COCCOc1ccc2c(C#N)c(-c3ccc(NC(=O)O[C@H](C)c4ccc(F)cc4)cc3)n(C(C)C)c2c1` [Compound 2854]: the melting point was in the range of 113 to 116 °C.
`CC1(S(=O)(=O)Nc2ccc(-c3c(C#N)c4ccc(C(=O)N5CCOCC5)cc4n3C3CCC3)cc2)CC1` [Compound 2964] came in with a melting point of 248 to 250 °C.
Next, `CCOc1ccc2c(C#N)c(-c3ccc(NC(=O)NCCN4CCOCC4)cc3)n(C3CCC3)c2c1` [Compound 1390]: 217 to 223 °C; `COc1ccnc(Oc2ccc3c(C#N)c(-c4ccc(NS(=O)(=O)CC(C)C)cc4)n(C4CCC4)c3c2)n1` [Compound 2904]: 182 to 186 °C; `CNS(=O)(=O)Nc1ccc(-c2c(C#N)c3ccc(OC4CCOCC4)cc3n2C2CCC2)cc1` [Compound 2833]: 218 to 220 °C.
For `N#Cc1c(-c2ccc(N3CCCCS3(=O)=O)cc2)n(C2CCC2)c2cc(Oc3ncccn3)ccc12` [Compound 3217] the value was 212 to 223 °C; for `CC(C)CS(=O)(=O)Nc1ccc(-c2c(C#N)c3ccc(Oc4nccnc4C#N)cc3n2CC2CC2)cc1` [Compound 3225], 194 to 197 °C.
Next, `Cc1cccnc1-c1ccc2c(C#N)c(-c3ccc(NC(=O)O[C@H](C)C4CC4)cc3)n(C3CCC3)c2c1` [Compound 2999]: 226 to 228 °C; `C[C@@H](OC(=O)Nc1ccc(-c2c(C#N)c3ccc(N4CCCCC4)cc3n2CC2CC2)cc1)C1CC1` [Compound 2907]: 127 to 132 °C.
Turning to `CC(OC(=O)Nc1ccc(-c2c(C#N)c3ccc(OC4CCOCC4)cc3n2C2CCC2)cc1)C1CC1` (centres unmarked) [Compound 2615], the melting point was in the range of 118 to 120 °C.
For `CCOc1ccc2c(C#N)c(-c3ccc(Nc4ncccn4)cc3)n(CC3CC3)c2c1` [Compound 3252] the value was 223 to 224 °C; for `COCCOc1ccc2c(C#N)c(-c3ccc(NC(=O)OC(C)(C)C(F)(F)F)cc3)n(C(C)C)c2c1` [Compound 2718], 188 to 191 °C; for `CC(C)CS(=O)(=O)Nc1ccc(-c2c(C#N)c3ccc(OC4COCOC4)cc3n2C2CCC2)cc1` [Compound 2917], 175 to 177 °C.
Next, `CCOP(=O)(Nc1ccc(-c2c(C#N)c3ccc(OC4CCOCC4)cc3n2C2CCC2)cc1)OCC` [Compound 2744]: 195 to 197 °C.
Next, `C[C@@H](OC(=O)Nc1ccc(-c2c(C#N)c3cc(N4CCOCC4)ccc3n2C2CCC2)cc1)C(F)(F)F` [Compound 2832]: 197 to 202 °C.
For the compound `CC(C)OC(=O)Nc1ccc(-c2c(C#N)c3ccc(OC4CCOCC4)cc3n2C2CCC2)cc1` [compound 2616, {4-[3-cyano-1-cyclobutyl-6-(tetrahydro-pyran-4-yloxy)-1H-indole-2-yl]-phenyl}-carbamic acid isopropyl ester], the melting point was 197 to 199 °C.
Turning to `N#Cc1c(-c2ccc(NCCCc3ccccc3)cc2)n(C2CCC2)c2cc(OCCF)ccc12` [Compound 3240], the melting point fell in the range of 121 to 124 °C.
Next, `N#Cc1c(-c2ccc(NC(=O)OC3CCC3)cc2)n(C2CCC2)c2ccc(OCCn3cncn3)cc12` [Compound 2677]: 190 to 192 °C; `C[C@H](NS(=O)(=O)Nc1ccc(-c2c(C#N)c3ccc(Oc4ncccc4F)cc3n2C2CCC2)cc1)C1CC1` [Compound 3018]: 155 to 157 °C; `CCOc1ccc2c(C#N)c(-c3ccc(NC(=O)OC4CCN(C(=O)OCCOC)CC4)cc3)n(C3CCC3)c2c1` [Compound 3073]: 185 to 190 °C.
For `CS(=O)(=O)CCCOc1ccc2c(C#N)c(-c3ccc(NS(=O)(=O)C4CC4)cc3)n(C3CCC3)c2c1` [Compound 2957] the value was 203 to 204 °C; for `CC(C)CS(=O)(=O)Nc1ccc(-c2c(C#N)c3ccc(N4CCCCC4)cc3n2C2CCC2)cc1` [Compound 2982], 198 to 202 °C; for `CCCCNC(=O)Oc1ccc(-c2c(C#N)c3ccc(OC4CCOCC4)cc3n2CC2CC2)cc1` [Compound 2783], 146 to 147 °C.

By melting point is commonly meant the temperature of the solid-liquid transition.
